The text below walks through data of PMC7804430, “Synthesis and tumour cell uptake studies of gadolinium(III)–phosphonium complexes” (Scientific Reports, 2021).

For series [1] the following is noted: literature values for HPLC calibration curve; cited from earlier work.
A short description of series [2]: Competition (challenge) stability assay with xylenol orange at acidic pH. The conditions noted are these: absorbance shift 433 to 573 nm. The series is classed as physicochemical. Here is the method:
In this work, the relative stability of complexes 6 and 7 were compared to the previously-reported archetypal Gd(III)-DO3A triphenylphosphonium complex (11, shown in Fig. 2) at acidic pH by means of a competition (challenge) assay using the lanthanoid(III) ion indicator xylenol orange[32]. These assays were performed under mildly acidic conditions to ensure the phenolic hydroxyl was protonated prior to chelation.
Solution stability assays were performed using the method described by Barge et al.[32]. Initially an acetate buffer solution (50 mM) was prepared, a portion of which was adjusted to pH 5.8 using NaOH, while other portions were adjusted to pH 5.0, 4.0, or 3.0 using glacial acetic acid. Xylenol orange (5.81 mg) was dissolved in the pH 5.8 acetate buffer (48.4 mL) to give a 10 × concentrated stock solution. These solutions were treated as light sensitive, work was conducted in minimal light and solutions were covered in foil.
25 mM stock solutions of each GdCl3, […] 11 were prepared in the various buffer solutions. […] The plates were agitated in a plate reader and allowed to equilibrate for 24 h. […] The plates were again agitated in a plate reader and allowed to equilibrate for 15 min at RT. The absorbance values were then determined at both 573 nm and 433 nm by means of a BMG LABTECH POLARstar Omega, UV Spectrometer, and the data plotted and processed using Graphpad Prism 7.

The subject of a further series is HF1 tumour cell line. Also on record: method as in PMID 19825958, PMID 15388578. The following applies: cited from earlier work.

For the compound `Nc1ccccc1` [aniline], the “logD7.4 of calibration standards” value in series [1] is given as 0.90. For `[Cl][Gd]([Cl])[Cl]` [GdCl3], the “% Gd^3+ retention” value in series [2] (pH 5.0, 24 h) worked out at 0%; in series [2] (pH 5.8, 24 h), 0%. With Motexafin-Gd [MGd], the IC50 with HF1 tumour cell line (HF1 tumour cell line, read-out: Concentration resulting in 50% cell arrest) is < 100 µM. In addition, in the series with HF1 tumour cell line (in the absence of any X-ray irradiation), the “Concentration exhibiting significant cytotoxicity” value is reported as “ca. 50 μM”. As to `c1ccc(N(c2ccccc2)c2ccccc2)cc1` [triphenylamine], the “logD7.4 of calibration standards” value in series [1] was 5.74.
